Test results taken from PubChem BioAssay (NCI).
Several values for one entry are separate records, joined by “and”; a condition that tells them apart may be missing. Identical values can stand only once.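 Dose response: 5 concentrations. Exposure: 48 h. Format: 96-well plates. Endpoint: linear interpolation; highest concentration if not reached. Abbreviation: GI50, concentration required for 50% inhibition of growth. Definition used: TGI = concentration required for complete inhibition of growth.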 Where a SMILES comes first, the peptide text is derived from it. [ ]: non-standard residue; d: D form. The star is where a group is joined. Phe(4-NO2) = N[CH](Cc1ccc([N+](=O)[O-])cc1)C(=O)O; Boc = CC(C)(C)OC(=O)*; OtBu = CC(C)(C)O*

What was measured:
Assay in all cases: NCI-60 cell line screen, 48 h
[1] = system: SNB-19 CNS
[2] = system: UACC-62 melanoma
[3] = system: HL-60(TB) leukemia
[4] = system: T-47D breast
[5] = system: SK-MEL-28 melanoma
[6] = system: U251 CNS
[7] = system: A498 renal
[8] = system: KM12 colon
[9] = system: MDA-N
[10] = system: NCI-H460 lung

SMILES | TGI [1] | TGI [2] | TGI [3] | TGI [4] | TGI [5] | TGI [6] | TGI [7] | TGI [8] | TGI [9] | TGI [10] | GI50 [3] | GI50 [4] | GI50 [5] | GI50 [9]
CCOC(=O)Cc1nc2c(=O)[nH]cnc2n1C1OC(COC(C)=O)C(OC(C)=O)C1OC(C)=O (centres undefined) | > 100 µM | > 100 µM | > 100 µM | > 100 µM | > 100 µM | > 100 µM | > 100 µM | > 100 µM | > 100 µM | > 100 µM |  |  |  | 
CSc1nc(Br)nc2c1ncn2C1CC(Oc2ccc(C)cc2)C(COc2ccc(C)cc2)O1 (centres undefined) | 73.8 µM | > 100 µM | > 100 µM | > 100 µM | > 100 µM | > 100 µM | > 100 µM | > 100 µM | > 100 µM | > 100 µM |  |  |  | 
CSC1(SC)CCCCCCCCCCC1 | > 100 µM | > 100 µM | > 100 µM | 73.3 µM | > 100 µM | > 100 µM | > 100 µM | > 100 µM | > 100 µM | > 100 µM |  |  |  | 
COC1=CC2(C=CC1=O)CCN=c1c(O)c3c(c(O)c12)=NC=N3 (centres undefined) | > 100 µM | > 100 µM | > 100 µM | > 100 µM | > 100 µM | > 100 µM | > 100 µM | > 100 µM | > 100 µM | > 100 µM |  |  |  | 
CN(C)CCNc1nc2ccccc2c2c1C(=O)c1ccccc1-2 | 5.42 µM | 0.437 µM | 0.812 µM | 4.12 µM | 2.84 µM | 2.83 µM | 1.24 µM | 2.11 µM | 1.39 µM | 0.415 µM |  |  |  | 
Cc1nn(C(=O)c2ccccc2O)c2c1C(c1ccc(O)cc1)SC(N)=N2 (centres undefined) | > 10 µM | > 10 µM | > 4.33 µM | 9.72 µM | > 10 µM | > 10 µM | > 10 µM | > 10 µM | > 10 µM | > 10 µM |  |  |  | 
O=C(O)c1ccc(Nc2cnc3ccc(C(F)(F)F)cc3n2)cc1 | 33.7 µM | 29.2 µM | 20.7 µM | 17.9 µM | > 100 µM | 59.2 µM | 42.9 µM | 31.4 µM | 37.3 µM | 87.9 µM |  |  |  | 
CN1C/C(=C\c2ccccc2[N+](=O)[O-])C(=O)/C(=C/c2ccccc2[N+](=O)[O-])C1 | 16.6 µM and 19.2 µM | 2.13 µM and 3.79 µM | 0.632 µM and 0.41 µM | 4.47 µM and 2.08 µM | 3.15 µM and 4.18 µM | 3.83 µM and 3.86 µM | 4.45 µM and 4.72 µM | 4.65 µM and 2.63 µM | 2.91 µM and 1.16 µM | 4.56 µM and 8.89 µM | 0.239 µM | 1.01 µM and 0.354 µM | 0.906 µM and 1.83 µM | 0.783 µM and 0.298 µM
C=CCOn1c(C=C)nc2c(C)cccc21 | 21.5 µM | 6.93 µM | 5.1 µM | 7.25 µM | 25.7 µM | 4.84 µM | 17.9 µM | 13 µM | 11.4 µM | 5.04 µM |  |  |  | 
O=C(Nc1ccccc1)N1N=C(c2ccccc2)C1c1ccccc1 (centres undefined) | > 100 µM | 45.7 µM | > 100 µM | > 100 µM | > 100 µM | > 100 µM | 42.7 µM | > 100 µM | 70.7 µM | > 100 µM |  |  |  | 
COc1ccccc1OC/C(N=Cc1ccncc1)=N/NC(=O)c1ccncc1 | > 100 µM | > 100 µM | > 100 µM | > 100 µM | > 100 µM | > 100 µM | > 100 µM | > 100 µM | > 100 µM | > 100 µM |  |  |  | 
BrCC[P+](c1ccccc1)(c1ccccc1)c1ccccc1 | 62.1 µM | 21.9 µM | 5.33 µM | 5.17 µM | 19.5 µM | 13.2 µM | 41.3 µM | 17.1 µM | 7.59 µM | 73.3 µM |  |  |  | 
CN(C)CCn1c(=O)c2ccc(NCCNCCO)c3c(=O)c4cc(O)ccc4n(c1=O)c23 | 10.8 µM | 4.23 µM | 4.61 µM | 13.3 µM | 17 µM | 8.27 µM | 25.7 µM | 26.6 µM | 7.49 µM | 4.51 µM |  |  |  | 
COc1ccc(S(=O)(=O)Nc2ccc(-c3csc(N4C(=O)/C(=C/C=C\c5ccccc5)N=C4c4ccccc4)n3)cc2)cc1Cl | > 100 µM | 49.9 µM | 59.9 µM | 57.1 µM | > 100 µM | 76.4 µM | 73.1 µM | 97.1 µM | 80.7 µM | > 100 µM |  |  |  | 
CN(Cc1nc2c(N)nc(N)nc2nc1N)c1ccc(C(=O)NC(CCC(=O)O)C(=O)O)cc1 (centres undefined) | > 100 µM | > 100 µM | > 100 µM | > 100 µM | > 100 µM | > 100 µM | > 100 µM | > 100 µM | > 100 µM | > 100 µM |  |  |  | 
CC1=CC(c2ccccc2)n2c(nc3cc4ccccc4cc32)N1 (centres undefined) | > 100 µM | > 100 µM | > 100 µM | > 100 µM | > 100 µM | > 100 µM | > 100 µM | > 100 µM | > 100 µM | > 100 µM |  |  |  | 
COC(=O)c1ccc(OCc2ccc3nc(-c4ccccc4)c(Cl)nc3c2)cc1 | > 100 µM | > 100 µM | > 100 µM | > 100 µM | > 100 µM | > 100 µM | > 100 µM | > 100 µM | > 100 µM | > 100 µM |  |  |  | 

SMILES | TGI [1] | TGI [2] | TGI [3] | TGI [4] | TGI [5] | TGI [6] | TGI [7] | TGI [8] | TGI [9] | TGI [10] | GI50 [3] | GI50 [4] | GI50 [5] | GI50 [9]
COC(=O)C(Cc1ccc([N+](=O)[O-])cc1)NC(=O)C(CC(=O)OC(C)(C)C)NC(=O)OC(C)(C)C (centres undefined) (Boc-Asp(OtBu)-[Phe(4-NO2)]-OMe; configuration not given here) | > 100 µM | > 100 µM | > 100 µM | > 100 µM | 57.4 µM | > 100 µM | > 100 µM | > 100 µM | > 100 µM | > 100 µM |  |  |  | 
c1csc(-c2ccc(-c3ccc(-c4cccs4)s3)s2)c1 | > 100 µM | > 100 µM | > 100 µM | > 100 µM | > 100 µM | > 100 µM | > 100 µM | > 100 µM | > 100 µM | > 100 µM |  |  |  | 
CC(=O)Oc1ccc2c(c1)c1c(OC(C)=O)c3ccccc3c(OC(C)=O)c1n2Cc1cccc(C)c1 | > 100 µM | > 100 µM | > 100 µM | > 100 µM | > 100 µM | > 100 µM | 70.6 µM | > 100 µM | > 100 µM | > 100 µM |  |  |  | 
N#Cc1nnc2c3c(-c4ccc(Cl)cc4)c(C#N)c(=O)[nH]c3nn2c1N | 19.5 µM | 4.44 µM | > 100 µM | 3.97 µM | 44.5 µM | 10.7 µM | 10.9 µM | 28.5 µM | 13.4 µM | 52.6 µM |  |  |  | 
CC(=O)c1nccc2c1c(C)nc1ccccc12 | > 100 µM | > 100 µM | > 100 µM | > 100 µM | > 100 µM | > 100 µM | > 100 µM | > 100 µM | > 100 µM | > 100 µM |  |  |  | 
C/C(=C/CC[C@](C)(OC1OC(CO)C(O)C(O)C1O)[C@H]1CC[C@]2(C)[C@@H]1CC[C@@H]1[C@@]3(C)CC[C@H](O)C(C)(C)[C@@H]3C[C@H](O)[C@]12C)CO (some centres undefined) | 56.5 µM | 58.3 µM | 49.9 µM | 60.4 µM | 38.5 µM | 28.5 µM | > 100 µM | 47.8 µM | 56.6 µM | 48.9 µM |  |  |  | 
O=C(O)c1ccccc1-c1ccccc1C(=O)c1ccccc1 | > 100 µM | > 100 µM | > 100 µM | > 100 µM | > 100 µM | > 100 µM | > 100 µM | > 100 µM | > 100 µM | > 100 µM |  |  |  | 
O=C(NCCCCl)c1c(O)c2ccccc2[nH]c1=O | > 100 µM | > 100 µM | > 100 µM | > 100 µM | > 100 µM | > 100 µM | > 100 µM | > 100 µM | > 100 µM | > 100 µM |  |  |  | 
O=C(O)CCCc1nc2c(n1-c1ccccc1)C(=O)c1ccccc1C2=O | > 100 µM | > 100 µM | > 100 µM | > 100 µM | > 100 µM | > 100 µM | > 100 µM | > 100 µM | > 100 µM | > 100 µM |  |  |  | 
COc1cccc(N2N=C3c4ccccc4-n4c(nc5ccccc54)C3C2N)c1 (centres undefined) | > 100 µM | > 100 µM | > 100 µM | > 100 µM | > 100 µM | > 100 µM | > 100 µM | > 100 µM | > 100 µM | > 100 µM |  |  |  | 
Cn1c(=O)c2[nH]c(N/N=C3/SCC(=O)N3Cc3ccccc3)nc2n(C)c1=O | > 100 µM | > 100 µM | > 100 µM | > 100 µM | > 100 µM | > 100 µM | > 100 µM | > 100 µM | 36.5 µM | > 100 µM |  |  |  | 
O=C1O/C(=C\c2ccc(O)cc2)C(c2ccc(O)c(Cl)c2)=C1Br | 62.7 µM | 28.9 µM | 51.2 µM | 62.9 µM | 26.2 µM | 34.5 µM | 34.6 µM | 30.3 µM | > 100 µM | 38.7 µM |  |  |  | 
COc1cc(O)c2c(c1)C(O)C(O)CC1OC1C(=O)/C=C/CC(C)OC2=O (centres undefined) | 58.2 µM | 3.2 µM | > 23.4 µM | 30.4 µM | 12 µM | 25 µM | 27.3 µM | 27.1 µM | 21.6 µM | 25.6 µM |  |  |  | 
CCOP(=O)(OCC)C(F)(F)CC1CCCCC1 | > 10 µM | > 10 µM | > 10 µM | > 10 µM | > 10 µM | > 10 µM | > 10 µM | > 10 µM | > 10 µM | > 10 µM |  |  |  | 
C/C(=N\O)c1ccc(Nc2c3ccccc3nc3occc23)cc1 | > 50 µM | 16.6 µM | 6.95 µM | 25.7 µM | > 18.5 µM | > 24.6 µM | > 10 µM | 27.4 µM | > 50 µM | 5.77 µM |  |  |  | 
Cc1cc(S(=O)(=O)NC(=NCC(=O)NN)NN)c(S)cc1Cl | > 10 µM | > 10 µM | > 10 µM | > 10 µM | > 10 µM | > 10 µM | > 10 µM | > 10 µM | > 10 µM | > 10 µM |  |  |  | 
O=C(CCCN1CCc2[nH]c3cc(F)ccc3c2C1)c1ccc(F)cc1 | > 100 µM | 25.5 µM | 27.2 µM | 36.1 µM | 34.9 µM | 29.8 µM | 24.4 µM | 26.9 µM | 29.2 µM | 23.9 µM |  |  |  | 
